In patent US8192962B2, “Processes for detecting toxic substances” (Daikin Industries, Ltd., priority 2001, dated 2012):

Tested on: DNA repair protein genes
Assay: DNA chip mRNA expression in yeast, DNA repair protein genes (Table 3)
Assay type: cell-based, Saccharomyces cerevisiae S288C
Details: incubated two hours, concentrations as in the 1st table
Outline: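 Values are treated/untreated fluorescence ratios from a whole-genome yeast DNA chip hybridized over 12 hours at 65° C with Cy3- or Cy5-labelled cDNA from poly(A) mRNA. Log-phase S288C yeast in YPD at 25° C had received a single toxic chemical for two hours, dosed to slow growth without killing.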

## N#Cc1c(Cl)c(Cl)c(Cl)c(C#N)c1Cl [(9), 2,4,5,6-tetrachloro-1,3-benzenedicarbonitrile]
Yeast gene YAL015C
  The level of expressed mRNA in the presence of chemical substance/The level of expressed mRNA in the absence of chemical substance: 4.0
Yeast gene YAR007C
  The level of expressed mRNA in the presence of chemical substance/The level of expressed mRNA in the absence of chemical substance: 4.1
Yeast gene YBL019W
  The level of expressed mRNA in the presence of chemical substance/The level of expressed mRNA in the absence of chemical substance: 2.6
Yeast gene YBR073W
  The level of expressed mRNA in the presence of chemical substance/The level of expressed mRNA in the absence of chemical substance: 2.5
Yeast gene YBR272C
  The level of expressed mRNA in the presence of chemical substance/The level of expressed mRNA in the absence of chemical substance: 1.7
Yeast gene YCR014C
  The level of expressed mRNA in the presence of chemical substance/The level of expressed mRNA in the absence of chemical substance: 2.4
Yeast gene YDL017W
  The level of expressed mRNA in the presence of chemical substance/The level of expressed mRNA in the absence of chemical substance: 0.8
Yeast gene YDL059C
  The level of expressed mRNA in the presence of chemical substance/The level of expressed mRNA in the absence of chemical substance: 10.5
Yeast gene YDL200C
  The level of expressed mRNA in the presence of chemical substance/The level of expressed mRNA in the absence of chemical substance: 2.4
Yeast gene YDR054C
  The level of expressed mRNA in the presence of chemical substance/The level of expressed mRNA in the absence of chemical substance: 2.9
Yeast gene YDR369C
  The level of expressed mRNA in the presence of chemical substance/The level of expressed mRNA in the absence of chemical substance: 2.4
Yeast gene YEL019C
  The level of expressed mRNA in the presence of chemical substance/The level of expressed mRNA in the absence of chemical substance: 0.7
Yeast gene YEL037C
  The level of expressed mRNA in the presence of chemical substance/The level of expressed mRNA in the absence of chemical substance: 2.6
Yeast gene YER162C
  The level of expressed mRNA in the presence of chemical substance/The level of expressed mRNA in the absence of chemical substance: 2.8
Yeast gene YFL014W
  The level of expressed mRNA in the presence of chemical substance/The level of expressed mRNA in the absence of chemical substance: 13.1
Yeast gene YGL058W
  The level of expressed mRNA in the presence of chemical substance/The level of expressed mRNA in the absence of chemical substance: 3.7
Yeast gene YGL091C
  The level of expressed mRNA in the presence of chemical substance/The level of expressed mRNA in the absence of chemical substance: 10.8
Yeast gene YGL127C
  The level of expressed mRNA in the presence of chemical substance/The level of expressed mRNA in the absence of chemical substance: 1.2
Yeast gene YGL163C
  The level of expressed mRNA in the presence of chemical substance/The level of expressed mRNA in the absence of chemical substance: 5.8
Yeast gene YGL249W
  The level of expressed mRNA in the presence of chemical substance/The level of expressed mRNA in the absence of chemical substance: 0.3
Yeast gene YGR180C
  The level of expressed mRNA in the presence of chemical substance/The level of expressed mRNA in the absence of chemical substance: 1.4
Yeast gene YGR231C
  The level of expressed mRNA in the presence of chemical substance/The level of expressed mRNA in the absence of chemical substance: 3.2
Yeast gene YGR258C
  The level of expressed mRNA in the presence of chemical substance/The level of expressed mRNA in the absence of chemical substance: 2.5
Yeast gene YHR164C
  The level of expressed mRNA in the presence of chemical substance/The level of expressed mRNA in the absence of chemical substance: 1.3
Yeast gene YIL036W
  The level of expressed mRNA in the presence of chemical substance/The level of expressed mRNA in the absence of chemical substance: 3.6
Yeast gene YIL072W
  The level of expressed mRNA in the presence of chemical substance/The level of expressed mRNA in the absence of chemical substance: 2.9
Yeast gene YIL143C
  The level of expressed mRNA in the presence of chemical substance/The level of expressed mRNA in the absence of chemical substance: 7.1
Yeast gene YIL153W
  The level of expressed mRNA in the presence of chemical substance/The level of expressed mRNA in the absence of chemical substance: 4.3
Yeast gene YIR002C
  The level of expressed mRNA in the presence of chemical substance/The level of expressed mRNA in the absence of chemical substance: 1.7
Yeast gene YJL026W
  The level of expressed mRNA in the presence of chemical substance/The level of expressed mRNA in the absence of chemical substance: 1.0
Yeast gene YJR046W
  The level of expressed mRNA in the presence of chemical substance/The level of expressed mRNA in the absence of chemical substance: 6.0
Yeast gene YJR052W
  The level of expressed mRNA in the presence of chemical substance/The level of expressed mRNA in the absence of chemical substance: 4.5
Yeast gene YKL145W
  The level of expressed mRNA in the presence of chemical substance/The level of expressed mRNA in the absence of chemical substance: 3.5
Yeast gene YLR103C
  The level of expressed mRNA in the presence of chemical substance/The level of expressed mRNA in the absence of chemical substance: 0.8
Yeast gene YLR233C
  The level of expressed mRNA in the presence of chemical substance/The level of expressed mRNA in the absence of chemical substance: 0.6
Yeast gene YLR288C
  The level of expressed mRNA in the presence of chemical substance/The level of expressed mRNA in the absence of chemical substance: 0.8
Yeast gene YML032C
  The level of expressed mRNA in the presence of chemical substance/The level of expressed mRNA in the absence of chemical substance: 3.0
Yeast gene YML058W
  The level of expressed mRNA in the presence of chemical substance/The level of expressed mRNA in the absence of chemical substance: 1.1
Yeast gene YMR035W
  The level of expressed mRNA in the presence of chemical substance/The level of expressed mRNA in the absence of chemical substance: 1.7
Yeast gene YMR072W
  The level of expressed mRNA in the presence of chemical substance/The level of expressed mRNA in the absence of chemical substance: 3.0
Yeast gene YMR096W
  The level of expressed mRNA in the presence of chemical substance/The level of expressed mRNA in the absence of chemical substance: 3.3
Yeast gene YMR284W
  The level of expressed mRNA in the presence of chemical substance/The level of expressed mRNA in the absence of chemical substance: 1.6
Yeast gene YNL213C
  The level of expressed mRNA in the presence of chemical substance/The level of expressed mRNA in the absence of chemical substance: 3.0
Yeast gene YNL250W
  The level of expressed mRNA in the presence of chemical substance/The level of expressed mRNA in the absence of chemical substance: 4.2
Yeast gene YNL261W
  The level of expressed mRNA in the presence of chemical substance/The level of expressed mRNA in the absence of chemical substance: 2.3
Yeast gene YNL312W
  The level of expressed mRNA in the presence of chemical substance/The level of expressed mRNA in the absence of chemical substance: 3.7
Yeast gene YOL043C
  The level of expressed mRNA in the presence of chemical substance/The level of expressed mRNA in the absence of chemical substance: 1.0
Yeast gene YOR005C
  The level of expressed mRNA in the presence of chemical substance/The level of expressed mRNA in the absence of chemical substance: 2.4
Yeast gene YOR386W
  The level of expressed mRNA in the presence of chemical substance/The level of expressed mRNA in the absence of chemical substance: 4.1
Yeast gene YPL022W
  The level of expressed mRNA in the presence of chemical substance/The level of expressed mRNA in the absence of chemical substance: 2.1
Yeast gene YPL164C
  The level of expressed mRNA in the presence of chemical substance/The level of expressed mRNA in the absence of chemical substance: 2.1
Yeast gene YPL194W
  The level of expressed mRNA in the presence of chemical substance/The level of expressed mRNA in the absence of chemical substance: 9.6
Yeast gene YPR025C
  The level of expressed mRNA in the presence of chemical substance/The level of expressed mRNA in the absence of chemical substance: 1.9
